Measured values as given in ChEMBL document CHEMBL2074536, “Characterization of stably transfected kidney epithelial cell line expressing rat H+/peptide cotransporter PEPT1: localization of PEPT1 and transport of beta-lactam antibiotics” (J Pharmacol Exp Ther, 1997).
Where a SMILES comes first, the peptide text is derived from it.

Tests used:
Type in all cases: functional, cell-based
[1] = biological target: T1, Solute carrier family 15 member 1 (Rattus norvegicus) (UniProt P51574); test: TP_TRANSPORTER: inhibition of Cephradine uptake (Cephradine: 1000 uM, Gly-Sar: 10000 uM) in PEPT1-expressing LLC-PK1 cells
T1 sequence (whole entry): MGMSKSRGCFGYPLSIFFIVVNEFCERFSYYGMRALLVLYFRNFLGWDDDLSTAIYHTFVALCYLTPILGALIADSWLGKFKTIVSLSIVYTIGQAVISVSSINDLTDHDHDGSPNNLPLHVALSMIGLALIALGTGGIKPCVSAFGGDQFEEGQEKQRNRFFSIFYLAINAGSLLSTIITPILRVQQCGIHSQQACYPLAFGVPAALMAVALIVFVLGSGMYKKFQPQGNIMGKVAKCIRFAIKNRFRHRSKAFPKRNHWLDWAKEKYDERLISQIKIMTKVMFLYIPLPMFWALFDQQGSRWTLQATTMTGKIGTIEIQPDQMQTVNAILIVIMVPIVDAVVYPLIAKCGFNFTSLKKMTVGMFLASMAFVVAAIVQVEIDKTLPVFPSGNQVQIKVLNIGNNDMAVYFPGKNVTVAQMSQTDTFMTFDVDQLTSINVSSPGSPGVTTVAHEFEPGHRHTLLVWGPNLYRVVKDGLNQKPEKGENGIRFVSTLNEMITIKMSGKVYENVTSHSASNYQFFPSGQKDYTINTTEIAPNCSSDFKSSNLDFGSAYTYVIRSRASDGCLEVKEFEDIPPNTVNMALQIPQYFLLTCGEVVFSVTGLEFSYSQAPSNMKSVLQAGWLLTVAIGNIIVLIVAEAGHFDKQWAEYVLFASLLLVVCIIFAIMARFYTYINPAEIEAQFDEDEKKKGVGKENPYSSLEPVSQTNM

[2] = biological target: T1, Solute carrier family 15 member 1 (Rattus norvegicus); test: TP_TRANSPORTER: inhibition of Ceftibuten uptake (Ceftibuten: 1000 uM, Gly-Sar: 10000 uM) in PEPT1-expressing LLC-PK1 cells
[3] = biological target: T1, Solute carrier family 15 member 1 (Rattus norvegicus); test: TP_TRANSPORTER: inhibition of Cephradine uptake (Cephradine: 1000 uM, Gly-Gly-Phe: 10000 uM) in PEPT1-expressing LLC-PK1 cells
[4] = biological target: T1, Solute carrier family 15 member 1 (Rattus norvegicus); test: TP_TRANSPORTER: inhibition of Ceftibuten uptake (Ceftibuten: 1000 uM, Gly-Gly-Phe: 10000 uM) in PEPT1-expressing LLC-PK1 cells
[5] = biological target: T1, Solute carrier family 15 member 1 (Rattus norvegicus); test: TP_TRANSPORTER: inhibition of Ceftibuten uptake (Ceftibuten: 1000 uM, Bestatin: 10000 uM) in PEPT1-expressing LLC-PK1 cells
[6] = biological target: T1, Solute carrier family 15 member 1 (Rattus norvegicus); test: (§1) TP_TRANSPORTER: uptake in PEPT1-expressing LLC-PK1 cells
[7] = biological target: T1, Solute carrier family 15 member 1 (Rattus norvegicus); test: TP_TRANSPORTER: inhibition of Cephradine uptake (Cephradine: 1000 uM, Bestatin: 10000 uM) in PEPT1-expressing LLC-PK1 cells
[8] = biological target: T1, Solute carrier family 15 member 1 (Rattus norvegicus); test: TP_TRANSPORTER: inhibition of Cephradine uptake (Cephradine: 1000 uM, Ceftibuten: 5000 uM) in PEPT1-expressing LLC-PK1 cells
[9] = biological target: T1, Solute carrier family 15 member 1 (Rattus norvegicus); test: TP_TRANSPORTER: inhibition of Ceftibuten uptake (Ceftibuten: 1000 uM, Cefixime: 10000 uM) in PEPT1-expressing LLC-PK1 cells
[10] = biological target: T1, Solute carrier family 15 member 1 (Rattus norvegicus); test: TP_TRANSPORTER: inhibition of Ceftibuten uptake (Ceftibuten: 1000 uM, Gly-Leu: 10000 uM) in PEPT1-expressing LLC-PK1 cells
[11] = biological target: T1, Solute carrier family 15 member 1 (Rattus norvegicus); test: TP_TRANSPORTER: inhibition of Cephradine uptake (Cephradine: 1000 uM, Gly-Leu: 10000 uM) in PEPT1-expressing LLC-PK1 cells
[12] = substrate: CC1=C(C(=O)O)N2C(=O)[C@@H](NC(=O)[C@H](N)C3=CCC=CC3)[C@H]2SC1; test: as §1
[13] = substrate: Nc1nc(/C(=C/CC(=O)O)C(=O)N[C@@H]2C(=O)N3C(C(=O)O)=CCS[C@H]23)cs1; test: as §1

With `CN(CC(=O)O)C(=O)CN` (HELM PEPTIDE1{G.[Sar]}$$$$V2.0) the Activity [1] was “inhibitor [+]” and the Activity [2] was “inhibitor [+]”.

With `NCC(=O)NCC(=O)N[C@@H](Cc1ccccc1)C(=O)O` (H-Gly-Gly-Phe-OH) the Activity [3] was “inhibitor [+]” and the Activity [4] was “inhibitor [+]”.

With `CC(C)C[C@H](NC(=O)[C@@H](O)[C@H](N)Cc1ccccc1)C(=O)O` the Activity [5] was “inhibitor [+]”, the Activity [6] was “substrate [+]” and the Activity [7] was “inhibitor [+]”.

In the case of `Nc1nc(/C(=C/CC(=O)O)C(=O)N[C@@H]2C(=O)N3C(C(=O)O)=CCS[C@H]23)cs1`, the Activity [8] is reported as “inhibitor [+]”.

In the case of `C=CC1=C(C(=O)O)N2C(=O)[C@@H](NC(=O)/C(=N\OCC(=O)O)c3csc(N)n3)[C@H]2SC1`, the Activity [9] is reported as “inhibitor [+]”.

For `CC(C)C[C@H](NC(=O)CN)C(=O)O`, the Activity [10] was “inhibitor [+]” and the Activity [11] was “inhibitor [+]”.

B1: Solute carrier family 15 member 1 (Rattus norvegicus), P51574 (protein)
chain: MGMSKSRGCFGYPLSIFFIVVNEFCERFSYYGMRALLVLYFRNFLGWDDDLSTAIYHTFVALCYLTPILGALIADSWLGKFKTIVSLSIVYTIGQAVISVSSINDLTDHDHDGSPNNLPLHVALSMIGLALIALGTGGIKPCVSAFGGDQFEEGQEKQRNRFFSIFYLAINAGSLLSTIITPILRVQQCGIHSQQACYPLAFGVPAALMAVALIVFVLGSGMYKKFQPQGNIMGKVAKCIRFAIKNRFRHRSKAFPKRNHWLDWAKEKYDERLISQIKIMTKVMFLYIPLPMFWALFDQQGSRWTLQATTMTGKIGTIEIQPDQMQTVNAILIVIMVPIVDAVVYPLIAKCGFNFTSLKKMTVGMFLASMAFVVAAIVQVEIDKTLPVFPSGNQVQIKVLNIGNNDMAVYFPGKNVTVAQMSQTDTFMTFDVDQLTSINVSSPGSPGVTTVAHEFEPGHRHTLLVWGPNLYRVVKDGLNQKPEKGENGIRFVSTLNEMITIKMSGKVYENVTSHSASNYQFFPSGQKDYTINTTEIAPNCSSDFKSSNLDFGSAYTYVIRSRASDGCLEVKEFEDIPPNTVNMALQIPQYFLLTCGEVVFSVTGLEFSYSQAPSNMKSVLQAGWLLTVAIGNIIVLIVAEAGHFDKQWAEYVLFASLLLVVCIIFAIMARFYTYINPAEIEAQFDEDEKKKGVGKENPYSSLEPVSQTNM
For B1, the Km [12] was 8.2 mM and the Km [13] was 1.5 mM.
